In assay [1] the target is FKBP12 (Homo sapiens, UniProt P62942). Nature of the assay: Ki test procedure: inhibition of peptidyl-prolyl isomerase (rotamase) activity, chymotrypsin-coupled assay. The format is biochemical. As to conditions: apparent Ki. An excerpt: The inhibition of the prolyl peptidyl cis-trans isomerase activity of FKBP may be measured as an indicator of this affinity.
Inhibition of the peptidyl-prolyl isomerase (rotamase) activity of the compounds used in the inventive methods and pharmaceutical compositions can be evaluated by known methods described in the literature (Harding et al., Nature, 1989, 341:758-760; Holt et al. J. Am. Chem. Soc., 115:9923-9938). These values are obtained as apparent Ki's and are presented for representative compounds in TABLE II.
The cis-trans isomerization of an alanine-proline bond in a model substrate, N-succinyl-Ala-Ala-Pro-Phe-p-nitroanilide, is monitored spectrophotometrically in a chymotrypsin-coupled assay, which releases para-nitroanilide from the trans form of the substrate. The inhibition of this reaction caused by the addition of different concentrations of inhibitor is determnined, and the data is analyzed as a change in first-order rate constant as a function of inhibitor concentration to yield the apparent Ki values.
In a plastic cuvette are added […] of ice cold assay buffer (25 mM HEPES, pH 7.8, 100 mM NaCl), 10 mL of FKBP (2.5 mM in 10 mM Tris-Cl pH 7.5, 100 mM NaCl, 1 mM dithiothreitol), […] of chymotrypsin (50 mg/ml in 1 mM HCl) and […] of test compound at various concentrations in dimethyl sulfoxide. The reaction is initiated by the addition of 5 mL of substrate (succinyl-Ala-Phe-Pro-Phe-para-nitroanilide, 5 mg/mL in 2.35 mM LiCl in trifluoroethanol).
The absorbance at 390 nm versus time is monitored for 90 seconds using a spectrophotometer and the rate constants are determined from the absorbance versus time data files.

Assay [2] deals with hair growth. The note with it: topical, but not oral, application; cited from earlier work.

Chain of FKBP12 (P62942 whole entry, species assumed): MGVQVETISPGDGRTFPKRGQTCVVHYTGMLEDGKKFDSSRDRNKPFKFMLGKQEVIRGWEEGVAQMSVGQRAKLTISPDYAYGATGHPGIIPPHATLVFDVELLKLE

Take `O=C(OCCCCc1ccccc1)C1CCCCN1S(=O)(=O)Cc1ccccc1` (stereo not drawn) [Compound 7, 4-phenyl-1-butyl-N-(α-toluene-sulfonyl)pipecolate]: the Ki in assay [1] stood at 127 nM.
With `O=C(OCCCCc1ccccc1)C1CCCCN1S(=O)(=O)Cc1ccccc1` (racemic) [Compound 1, 4-phenyl-1-butyl-1-(benzylsulfonyl)-(2R,S)-2-pipecolinate], the Ki in assay [1] was 72 nM.
On the same count and under the same terms, under `O=C(OC(CCc1ccccc1)CCc1ccccc1)C1CCCCN1S(=O)(=O)Cc1ccccc1` (stereo not drawn) [Compound 2, 1,5-diphenyl-3-pentyl-N-(α-toluene-sulfonyl)pipecolate] stands 34 nM; under `O=C(OCCCc1cccnc1)[C@@H]1CCCN1S(=O)(=O)Cc1ccccc1` [Compound 4, 3-(3-pyridyl)-1-propyl-(2S)-N-(α-toluenesulfonyl)pyrrolidine-2-carboxylate], 332 nM.
`C=CC[C@@H]1/C=C(\C)C[C@H](C)C[C@H](OC)[C@H]2O[C@@](O)(C(=O)C(=O)N3CCCC[C@H]3C(=O)O[C@H](/C(C)=C/[C@@H]3CC[C@@H](O)[C@H](OC)C3)[C@H](C)[C@@H](O)CC1=O)[C@H](C)C[C@@H]2OC` [FK506]: in assay [2], the hair growth stimulation entry was “stimulates hair growth in a dose-dependent manner”.

(Values after US20010029261A1, “Small molecule sulfonamide hair growth compositions and uses” (GUILFORD PHARMACEUTICALS INC., priority 1997, published 2001).)
